{"source": "PubChem BioAssay AID248", "about": "(DTP/NCI, 2004)", "system": "L1210 leukemia ip in BDF1 mice, survival T/C", "experiment": "NCI In Vivo Anticancer Drug Screen. Data for tumor model L1210 Leukemia (intraperitoneal) in B6D2F1 (BDF1) mice", "conditions": "endpoint: mean survival time, higher = longer survival", "in_short": "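Mice bearing the transplanted tumor received compound or vehicle. Survival of the treated group was divided by that of the vehicle-treated control group to give the ratio.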", "key": {"[1]": {"conditions": "dose: 50.0 mg/kg/injection, schedule: Q01DX001 (ip), vehicle: saline"}, "[2]": {"conditions": "dose: 100.0 mg/kg/injection, schedule: Q01DX001 (ip), vehicle: saline"}}, "note": "Several values for one entry are separate records, joined by “and”; a condition that tells them apart may be missing. Equal values may be shown once. Inconclusive results and toxic doses are left out."}
{"smiles": "Nc1nc(N)c2cc(CNc3ccc(C(=O)NC(CC(=O)O)C(=O)O)cc3)ccc2n1", "note": "(centres undefined)", "values": [{"measurement": "T/C", "setting": "dose: 0.07 mg/kg/injection, schedule: Q01DX009 (ip), vehicle: saline", "value": "97 % of control and 100 % of control"}, {"measurement": "T/C", "setting": "dose: 0.14 mg/kg/injection, schedule: Q01DX009 (ip), vehicle: saline", "value": "110 % of control and 120 % of control"}, {"measurement": "T/C", "setting": "dose: 0.25 mg/kg/injection, schedule: Q01DX009 (sc), vehicle: saline", "value": "110 % of control"}, {"measurement": "T/C", "setting": "dose: 0.5 mg/kg/injection, schedule: Q01DX009 (sc), vehicle: saline", "value": "120 % of control"}, {"measurement": "T/C", "setting": "dose: 0.56 mg/kg/injection, schedule: Q01DX009 (ip), vehicle: saline", "value": "164 % of control"}, {"measurement": "T/C", "setting": "dose: 0.67 mg/kg/injection, schedule: Q01DX009 (ip), vehicle: saline", "value": "157 % of control and 189 % of control"}, {"measurement": "T/C", "setting": "dose: 1.0 mg/kg/injection, schedule: Q01DX009 (ip), vehicle: saline", "value": "178 % of control"}, {"measurement": "T/C", "setting": "dose: 1.0 mg/kg/injection, schedule: Q01DX009 (sc), vehicle: saline", "value": "158 % of control"}, {"measurement": "T/C", "setting": "dose: 1.13 mg/kg/injection, schedule: Q01DX009 (ip), vehicle: saline", "value": "153 % of control and 193 % of control and 195 % of control"}, {"measurement": "T/C", "setting": "dose: 1.25 mg/kg/injection, schedule: Q01DX009 (ip), vehicle: saline", "value": "173 % of control and 177 % of control"}, {"measurement": "T/C", "setting": "dose: 2.0 mg/kg/injection, schedule: Q01DX001 (ip), vehicle: saline", "value": "118 % of control"}, {"measurement": "T/C", "setting": "dose: 2.0 mg/kg/injection, schedule: Q01DX001 (iv), vehicle: saline", "value": "117 % of control"}, {"measurement": "T/C", "setting": "dose: 2.0 mg/kg/injection, schedule: Q01DX001 (sc), vehicle: saline", "value": "112 % of control"}, {"measurement": "T/C", "setting": "dose: 2.0 mg/kg/injection, schedule: Q01DX009 (ip), vehicle: saline", "value": "154 % of control"}, {"measurement": "T/C", "setting": "dose: 2.0 mg/kg/injection, schedule: Q01DX009 (oral), vehicle: saline", "value": "110 % of control"}, {"measurement": "T/C", "setting": "dose: 2.0 mg/kg/injection, schedule: Q01DX009 (sc), vehicle: saline", "value": "188 % of control"}, {"measurement": "T/C", "setting": "dose: 2.0 mg/kg/injection, schedule: Q08DX002 (ip), vehicle: saline", "value": "118 % of control"}, {"measurement": "T/C", "setting": "dose: 2.0 mg/kg/injection, schedule: Q## X008 (ip), vehicle: saline", "value": "123 % of control"}, {"measurement": "T/C", "setting": "dose: 2.0 mg/kg/injection, schedule: Q## X024 (ip), vehicle: saline", "value": "154 % of control"}, {"measurement": "T/C", "setting": "dose: 2.25 mg/kg/injection, schedule: Q01DX009 (ip), vehicle: saline", "value": "174 % of control and 177 % of control"}, {"measurement": "T/C", "setting": "dose: 4.0 mg/kg/injection, schedule: Q01DX001 (ip), vehicle: saline", "value": "119 % of control"}, {"measurement": "T/C", "setting": "dose: 4.0 mg/kg/injection, schedule: Q01DX001 (iv), vehicle: saline", "value": "119 % of control"}, {"measurement": "T/C", "setting": "dose: 4.0 mg/kg/injection, schedule: Q01DX001 (sc), vehicle: saline", "value": "119 % of control"}, {"measurement": "T/C", "setting": "dose: 4.0 mg/kg/injection, schedule: Q01DX009 (oral), vehicle: saline", "value": "110 % of control"}, {"measurement": "T/C", "setting": "dose: 4.0 mg/kg/injection, schedule: Q01DX009 (sc), vehicle: saline", "value": "120 % of control"}, {"measurement": "T/C", "setting": "dose: 4.0 mg/kg/injection, schedule: Q## X003 (ip), vehicle: saline", "value": "152 % of control"}, {"measurement": "T/C", "setting": "dose: 4.0 mg/kg/injection, schedule: Q## X024 (ip), vehicle: saline", "value": "185 % of control"}, {"measurement": "T/C", "setting": "dose: 4.5 mg/kg/injection, schedule: Q01DX009 (ip), vehicle: saline", "value": "95 % of control and 117 % of control"}, {"measurement": "T/C", "setting": "dose: 5.0 mg/kg/injection, schedule: Q01DX009 (ip), vehicle: saline", "value": "96 % of control and 101 % of control and 91 % of control"}, {"measurement": "T/C", "setting": "dose: 8.0 mg/kg/injection, schedule: Q01DX001 (ip), vehicle: saline", "value": "123 % of control"}, {"measurement": "T/C", "setting": "dose: 8.0 mg/kg/injection, schedule: Q01DX001 (iv), vehicle: saline", "value": "118 % of control"}, {"measurement": "T/C", "setting": "dose: 8.0 mg/kg/injection, schedule: Q01DX009 (oral), vehicle: saline", "value": "109 % of control"}, {"measurement": "T/C", "setting": "dose: 8.0 mg/kg/injection, schedule: Q03HX016 (ip), vehicle: saline", "value": "150 % of control"}, {"measurement": "T/C", "setting": "dose: 8.0 mg/kg/injection, schedule: Q## X003 (ip), vehicle: saline", "value": "158 % of control"}, {"measurement": "T/C", "setting": "dose: 8.0 mg/kg/injection, schedule: Q## X024 (ip), vehicle: saline", "value": "194 % of control"}, {"measurement": "T/C", "setting": "dose: 9.0 mg/kg/injection, schedule: Q01DX009 (ip), vehicle: saline", "value": "87 % of control and 89 % of control"}, {"measurement": "T/C", "setting": "dose: 10.0 mg/kg/injection, schedule: Q01DX009 (ip), vehicle: saline", "value": "89 % of control and 91 % of control"}, {"measurement": "T/C", "setting": "dose: 16.0 mg/kg/injection, schedule: Q01DX001 (iv), vehicle: saline", "value": "122 % of control"}, {"measurement": "T/C", "setting": "dose: 16.0 mg/kg/injection, schedule: Q01DX001 (oral), vehicle: saline", "value": "102 % of control"}, {"measurement": "T/C", "setting": "dose: 16.0 mg/kg/injection, schedule: Q01DX009 (oral), vehicle: saline", "value": "112 % of control"}, {"measurement": "T/C", "setting": "dose: 16.0 mg/kg/injection, schedule: Q03HX016 (ip), vehicle: saline", "value": "165 % of control"}, {"measurement": "T/C", "setting": "dose: 16.0 mg/kg/injection, schedule: Q08DX002 (ip), vehicle: saline", "value": "169 % of control"}, {"measurement": "T/C", "setting": "dose: 16.0 mg/kg/injection, schedule: Q## X024 (ip), vehicle: saline", "value": "206 % of control"}, {"measurement": "T/C", "setting": "dose: 20.0 mg/kg/injection, schedule: Q01DX001 (ip), vehicle: saline", "value": "108 % of control"}, {"measurement": "T/C", "setting": "dose: 32.0 mg/kg/injection, schedule: Q01DX001 (ip), vehicle: saline", "value": "152 % of control"}, {"measurement": "T/C", "setting": "dose: 32.0 mg/kg/injection, schedule: Q01DX001 (oral), vehicle: saline", "value": "103 % of control"}, {"measurement": "T/C", "setting": "dose: 32.0 mg/kg/injection, schedule: Q03HX016 (ip), vehicle: saline", "value": "197 % of control"}, {"measurement": "T/C", "setting": "dose: 32.0 mg/kg/injection, schedule: Q08DX002 (ip), vehicle: saline", "value": "159 % of control"}, {"measurement": "T/C", "setting": "dose: 32.0 mg/kg/injection, schedule: Q## X008 (ip), vehicle: saline", "value": "150 % of control"}, {"measurement": "T/C", "setting": "dose: 64.0 mg/kg/injection, schedule: Q01DX001 (oral), vehicle: saline", "value": "101 % of control"}, {"measurement": "T/C", "setting": "dose: 128.0 mg/kg/injection, schedule: Q01DX001 (oral), vehicle: saline", "value": "101 % of control"}]}
{"smiles": "COc1cccc(N=CN(C)C)c1", "values": [{"measurement": "T/C", "setting": "[1]", "value": "90 % of control"}, {"measurement": "T/C", "setting": "[2]", "value": "104 % of control"}]}
{"smiles": "CCOC(CCc1c(-c2ccc([N+](=O)[O-])cc2)nc(N)[nH]c1=O)OCC", "values": [{"measurement": "T/C", "setting": "dose: 100.0 mg/kg/injection, schedule: Q01DX009 (ip), vehicle: saline with Tween-80", "value": "95 % of control"}, {"measurement": "T/C", "setting": "dose: 200.0 mg/kg/injection, schedule: Q01DX009 (ip), vehicle: saline with Tween-80", "value": "111 % of control"}, {"measurement": "T/C", "setting": "dose: 400.0 mg/kg/injection, schedule: Q01DX009 (ip), vehicle: saline with Tween-80", "value": "95 % of control"}]}
{"smiles": "CN(C)CCCn1c(=O)c2ccccc2c2ccccc21", "values": [{"measurement": "T/C", "setting": "[1]", "value": "101 % of control"}, {"measurement": "T/C", "setting": "dose: 50.0 mg/kg/injection, schedule: Q01DX015 (ip), vehicle: saline", "value": "98 % of control"}, {"measurement": "T/C", "setting": "[2]", "value": "103 % of control"}, {"measurement": "T/C", "setting": "dose: 100.0 mg/kg/injection, schedule: Q01DX015 (ip), vehicle: saline", "value": "108 % of control"}]}
{"smiles": "CC12CCN=C1c1ccc3cc(O)ccc3c1CC2", "note": "(centres undefined)", "values": [{"measurement": "T/C", "setting": "dose: 100.0 mg/kg/injection, schedule: Q04DX003 (sc), vehicle: steriod suspending solution", "value": "93 % of control"}, {"measurement": "T/C", "setting": "dose: 200.0 mg/kg/injection, schedule: Q04DX003 (sc), vehicle: steriod suspending solution", "value": "107 % of control"}, {"measurement": "T/C", "setting": "dose: 400.0 mg/kg/injection, schedule: Q04DX003 (sc), vehicle: steriod suspending solution", "value": "96 % of control"}]}
{"smiles": "Cc1ccc(S(=O)(=O)NC(=O)OC/C=C/c2ccccc2)cc1", "values": [{"measurement": "T/C", "setting": "dose: 100.0 mg/kg/injection, schedule: Q01DX009 (ip), vehicle: alcohol", "value": "96 % of control"}, {"measurement": "T/C", "setting": "dose: 200.0 mg/kg/injection, schedule: Q01DX009 (ip), vehicle: alcohol", "value": "94 % of control"}, {"measurement": "T/C", "setting": "dose: 400.0 mg/kg/injection, schedule: Q01DX009 (ip), vehicle: alcohol", "value": "110 % of control"}]}
{"smiles": "Nc1ccn(CC(=O)c2cc3ccccc3[nH]2)c(=O)n1", "values": [{"measurement": "T/C", "setting": "dose: 100.0 mg/kg/injection, schedule: Q04DX002 (ip), vehicle: saline with Tween-80", "value": "101 % of control"}, {"measurement": "T/C", "setting": "dose: 200.0 mg/kg/injection, schedule: Q04DX002 (ip), vehicle: saline with Tween-80", "value": "97 % of control"}, {"measurement": "T/C", "setting": "dose: 400.0 mg/kg/injection, schedule: Q04DX002 (ip), vehicle: saline with Tween-80", "value": "108 % of control"}]}
